# Measured values published in patent US10266537B2, “3-acetylenyl-pyrazole-pyrimidine derivative, and preparation method therefor and uses thereof” (Si Chuan University, priority 2015, dated 2019).
# pIC50: −log10 of the molar value. Read-outs that look alike come from different tables or passages of the source.
# Experiments:
# Yes = Yes (Homo sapiens (Human), UniProt P07947); assay: Kinase inhibition assay (KinaseProfiler, 33P-ATP); assay type: biochemical
# Fyn = Fyn (Homo sapiens (Human), UniProt P06241); assay: Kinase inhibition assay (KinaseProfiler, 33P-ATP); assay type: biochemical
# Fyn, sequence (P06241 whole entry): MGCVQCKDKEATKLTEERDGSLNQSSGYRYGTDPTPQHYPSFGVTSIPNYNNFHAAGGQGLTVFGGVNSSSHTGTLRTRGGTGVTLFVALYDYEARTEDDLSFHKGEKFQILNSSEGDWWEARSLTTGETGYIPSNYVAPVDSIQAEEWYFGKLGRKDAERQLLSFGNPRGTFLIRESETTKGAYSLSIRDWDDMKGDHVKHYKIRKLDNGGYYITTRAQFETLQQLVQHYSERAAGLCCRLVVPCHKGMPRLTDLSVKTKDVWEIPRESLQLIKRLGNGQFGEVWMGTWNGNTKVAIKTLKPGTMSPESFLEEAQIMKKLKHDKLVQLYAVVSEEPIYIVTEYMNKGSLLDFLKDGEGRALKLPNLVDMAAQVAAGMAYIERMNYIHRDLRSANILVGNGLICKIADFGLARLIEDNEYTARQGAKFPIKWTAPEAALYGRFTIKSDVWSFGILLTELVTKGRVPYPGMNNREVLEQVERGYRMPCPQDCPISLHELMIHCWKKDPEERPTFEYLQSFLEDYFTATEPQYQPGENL
# KDR = KDR (Homo sapiens (Human), UniProt P35968); assay: Kinase inhibition assay (KinaseProfiler, 33P-ATP); assay type: biochemical; conditions: KDR(h); 10 μM; read-out: The percentage of the remaining active protein
# FGFR1 = FGFR1 (Homo sapiens (Human), UniProt P11362); assay: Kinase inhibition assay (KinaseProfiler, 33P-ATP); assay type: biochemical; conditions: FGFR1(h); 10 μM; read-out: The percentage of the remaining active protein
# EphB4 = EphB4 (Homo sapiens (Human), UniProt P54760); assay: Kinase inhibition assay (KinaseProfiler, 33P-ATP); assay type: biochemical; conditions: EphB4(h); 10 μM; read-out: The percentage of the remaining active protein
# ErbB2 = ErbB2 (Homo sapiens (Human), UniProt P04626); assay: Kinase inhibition assay (KinaseProfiler, 33P-ATP); assay type: biochemical
# ErbB2, sequence (P04626 23-1255): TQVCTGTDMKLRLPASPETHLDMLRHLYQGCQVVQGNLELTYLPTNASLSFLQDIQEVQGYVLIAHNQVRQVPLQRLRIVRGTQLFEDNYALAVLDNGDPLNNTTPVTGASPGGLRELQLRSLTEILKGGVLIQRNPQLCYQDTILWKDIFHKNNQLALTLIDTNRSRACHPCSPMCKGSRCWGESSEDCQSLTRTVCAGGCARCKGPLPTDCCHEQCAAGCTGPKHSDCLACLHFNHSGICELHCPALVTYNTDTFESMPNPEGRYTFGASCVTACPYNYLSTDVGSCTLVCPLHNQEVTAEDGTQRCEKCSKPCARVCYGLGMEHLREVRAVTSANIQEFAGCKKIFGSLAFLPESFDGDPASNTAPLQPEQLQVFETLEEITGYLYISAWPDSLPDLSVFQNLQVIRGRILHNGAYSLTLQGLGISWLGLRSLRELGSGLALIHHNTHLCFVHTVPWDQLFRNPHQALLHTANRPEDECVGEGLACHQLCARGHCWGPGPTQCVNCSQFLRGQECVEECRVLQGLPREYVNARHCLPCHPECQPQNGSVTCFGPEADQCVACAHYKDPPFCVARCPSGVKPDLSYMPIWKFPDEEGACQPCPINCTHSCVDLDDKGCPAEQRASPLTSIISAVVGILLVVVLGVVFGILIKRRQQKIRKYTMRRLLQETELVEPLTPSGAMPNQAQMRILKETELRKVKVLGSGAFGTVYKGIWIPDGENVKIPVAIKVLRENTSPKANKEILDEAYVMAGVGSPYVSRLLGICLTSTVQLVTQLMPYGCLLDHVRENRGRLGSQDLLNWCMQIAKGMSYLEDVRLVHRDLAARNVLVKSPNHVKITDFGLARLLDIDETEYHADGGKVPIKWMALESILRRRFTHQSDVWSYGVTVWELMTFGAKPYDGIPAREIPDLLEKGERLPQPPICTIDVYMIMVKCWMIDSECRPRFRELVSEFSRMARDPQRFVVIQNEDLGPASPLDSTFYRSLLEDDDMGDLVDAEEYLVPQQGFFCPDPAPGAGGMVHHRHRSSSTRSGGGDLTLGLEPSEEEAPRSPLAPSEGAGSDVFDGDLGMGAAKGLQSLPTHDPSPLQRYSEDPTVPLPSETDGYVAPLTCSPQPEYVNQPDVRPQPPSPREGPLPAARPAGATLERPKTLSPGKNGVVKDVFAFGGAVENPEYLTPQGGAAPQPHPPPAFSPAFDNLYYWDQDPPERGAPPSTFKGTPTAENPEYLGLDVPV
# DDR1 = DDR1 (Homo sapiens (Human), UniProt Q08345); assay: Kinase inhibition assay (KinaseProfiler, 33P-ATP); assay type: biochemical
# DDR1, sequence (Q08345 19-913): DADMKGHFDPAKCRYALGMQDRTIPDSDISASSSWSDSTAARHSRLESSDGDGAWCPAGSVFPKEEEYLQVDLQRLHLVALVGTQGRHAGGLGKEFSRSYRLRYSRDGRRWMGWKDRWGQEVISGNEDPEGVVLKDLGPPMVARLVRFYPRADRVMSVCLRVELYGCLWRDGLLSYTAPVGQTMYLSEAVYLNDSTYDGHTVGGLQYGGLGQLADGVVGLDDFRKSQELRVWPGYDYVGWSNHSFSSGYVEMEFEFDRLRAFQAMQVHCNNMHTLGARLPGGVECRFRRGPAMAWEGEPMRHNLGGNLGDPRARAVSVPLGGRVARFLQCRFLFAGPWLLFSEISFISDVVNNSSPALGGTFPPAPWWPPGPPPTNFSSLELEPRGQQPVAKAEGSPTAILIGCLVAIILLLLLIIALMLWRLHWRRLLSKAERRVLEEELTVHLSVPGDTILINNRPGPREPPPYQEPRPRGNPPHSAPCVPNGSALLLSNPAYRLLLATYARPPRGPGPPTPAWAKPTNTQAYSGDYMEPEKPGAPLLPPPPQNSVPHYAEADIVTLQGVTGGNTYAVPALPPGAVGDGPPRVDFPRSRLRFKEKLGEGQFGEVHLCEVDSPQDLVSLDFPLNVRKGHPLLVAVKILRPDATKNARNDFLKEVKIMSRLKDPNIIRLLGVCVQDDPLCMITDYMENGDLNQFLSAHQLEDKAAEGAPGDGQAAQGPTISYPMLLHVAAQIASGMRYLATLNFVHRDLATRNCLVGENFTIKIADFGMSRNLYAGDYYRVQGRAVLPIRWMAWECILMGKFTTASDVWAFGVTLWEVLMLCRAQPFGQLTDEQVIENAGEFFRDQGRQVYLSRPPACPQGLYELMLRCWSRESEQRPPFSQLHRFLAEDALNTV
# TrkA = TrkA (Homo sapiens (Human), UniProt P04629); assay: Kinase inhibition assay (KinaseProfiler, 33P-ATP); assay type: biochemical; conditions: TrkA(h); 10 μM; read-out: The percentage of the remaining active protein
# IKKα = IKKα (Homo sapiens (Human), UniProt O15111); assay: Kinase inhibition assay (KinaseProfiler, 33P-ATP); assay type: biochemical; conditions: IKKα(h); 10 μM; read-out: The percentage of the remaining active protein
# Lyn = Lyn (Homo sapiens (Human), UniProt P07948); assay: Kinase inhibition assay (KinaseProfiler, 33P-ATP); assay type: biochemical
# Lyn, sequence (P07948 whole entry): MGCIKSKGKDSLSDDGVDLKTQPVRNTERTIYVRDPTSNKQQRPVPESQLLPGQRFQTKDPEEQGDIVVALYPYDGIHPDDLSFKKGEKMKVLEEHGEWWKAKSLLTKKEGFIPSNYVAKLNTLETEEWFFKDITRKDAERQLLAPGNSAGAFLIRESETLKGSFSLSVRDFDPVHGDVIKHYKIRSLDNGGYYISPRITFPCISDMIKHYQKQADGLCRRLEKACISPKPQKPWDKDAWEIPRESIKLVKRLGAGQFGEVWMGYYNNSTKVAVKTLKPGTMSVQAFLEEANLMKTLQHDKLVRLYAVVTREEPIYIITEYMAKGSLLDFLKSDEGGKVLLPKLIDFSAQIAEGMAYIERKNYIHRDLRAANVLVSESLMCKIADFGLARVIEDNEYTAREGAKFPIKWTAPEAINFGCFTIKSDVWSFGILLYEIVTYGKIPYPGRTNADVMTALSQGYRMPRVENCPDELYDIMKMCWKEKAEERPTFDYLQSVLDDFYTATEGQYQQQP
# ALK(h) = ALK(h) (Homo sapiens (Human), UniProt Q9UM73); assay: Kinase inhibition assay (KinaseProfiler, 33P-ATP); assay type: biochemical; conditions: 10 μM, read-out: The percentage of the remaining active protein
# CDK7 = CDK7 (Homo sapiens (Human), UniProt P50613); assay: Kinase inhibition assay (KinaseProfiler, 33P-ATP); assay type: biochemical; conditions: CDK7/cyclinH/MAT1(h); 10 μM; read-out: The percentage of the remaining active protein
# EphA8(h) = EphA8(h) (Homo sapiens (Human), UniProt P29322); assay: Kinase inhibition assay (KinaseProfiler, 33P-ATP); assay type: biochemical; conditions: 10 μM, read-out: The percentage of the remaining active protein
# Fer(h) = Fer(h) (Homo sapiens (Human), UniProt P16591); assay: Kinase inhibition assay (KinaseProfiler, 33P-ATP); assay type: biochemical; conditions: 10 μM, read-out: The percentage of the remaining active protein
# GSK3β(h) = GSK3β(h) (Homo sapiens (Human), UniProt P49841); assay: Kinase inhibition assay (KinaseProfiler, 33P-ATP); assay type: biochemical; conditions: 10 μM, read-out: The percentage of the remaining active protein
# PKA(h) = PKA(h) (Homo sapiens (Human), UniProt P17612); assay: Kinase inhibition assay (KinaseProfiler, 33P-ATP); assay type: biochemical; conditions: 10 μM, read-out: The percentage of the remaining active protein
# PKBα(h) = PKBα(h) (Homo sapiens (Human), UniProt P31749); assay: Kinase inhibition assay (KinaseProfiler, 33P-ATP); assay type: biochemical; conditions: 10 μM, read-out: The percentage of the remaining active protein
# PKBβ(h) = PKBβ(h) (Homo sapiens (Human), UniProt P31751); assay: Kinase inhibition assay (KinaseProfiler, 33P-ATP); assay type: biochemical; conditions: 10 μM, read-out: The percentage of the remaining active protein
# PKCα(h) = PKCα(h) (Homo sapiens (Human), UniProt P17252); assay: Kinase inhibition assay (KinaseProfiler, 33P-ATP); assay type: biochemical; conditions: 10 μM, read-out: The percentage of the remaining active protein
# TBK1(h) = TBK1(h) (Homo sapiens (Human), UniProt Q9UHD2); assay: Kinase inhibition assay (KinaseProfiler, 33P-ATP); assay type: biochemical; conditions: 10 μM, read-out: The percentage of the remaining active protein
# Tec(h) activated = Tec(h) activated (Homo sapiens (Human), UniProt P42680); assay: Kinase inhibition assay (KinaseProfiler, 33P-ATP); assay type: biochemical; conditions: 10 μM, read-out: The percentage of the remaining active protein
# PI3 Kinase a(h) = PI3 Kinase a(h) (Homo sapiens (Human), UniProt P42336); assay: Kinase inhibition assay (KinaseProfiler, 33P-ATP); assay type: biochemical; conditions: PI3 Kinase (p110a/p85a)(h); 10 μM; read-out: The percentage of the remaining active protein
# Miapaca-2 = assay: Cell proliferation inhibition assay (MTT); assay type: cell-based; conditions: Homo sapiens, MIA PaCa-2; Miapaca-2; MTT, 72 hours; read-out: Proliferation inhibitory activity IC50
# Method: (§1) The cells were seeded in 96-well plates with 200 μL of cell suspension per well and incubated overnight in a cell culture medium with a cell concentration of 1 2×10^4 cells/mL. The next day, the supernatant was discarded (the suspension cell was centrifuged before it) and the cells were treated with gradient concentrations of the test compound, respectively. […] After 72 hours, add 20 μL of MTT reagent at a concentration of 5 mg/mL per well. After incubation for 2-4 h, the supernatant was discarded and 150 μL of DMSO was added to each well. […] Relative cell proliferation inhibition rate=([MUT]-[MUT])×100%/[MUT]. The experiment was repeated at least 3 times. Experimental data were expressed as mean, data statistics using t test, P<0.05 for the difference was statistically significant.
# MDA-MB-231 = assay: Cell proliferation inhibition assay (MTT); assay type: cell-based, human; conditions: Homo sapiens, MDA-MB-231, MTT, 72 hours
# Method: (§2) The remaining cell lines were cultured in DMEM complete medium containing 10% fetal bovine serum (MV4-11 cells 20%), 100 U/ml penicillin, 100 μg/mL streptomycin at 5% CO2, and 37° C.
# (§3) The cells were seeded in 96-well plates with 200 μL of cell suspension per well and incubated overnight in a cell culture medium with a cell concentration of 1˜2×10^4 cells/mL. The next day, the supernatant was discarded (the suspension cell was centrifuged before it) and the cells were treated with gradient concentrations of the test compound, respectively. At the same time, the drug-free negative control group and the equal volume of solvent control group, DMSO concentration of 0.1%, each dose group set up three wells, 37° C., 5% CO2 conditions. After 72 hours, add 20 μL of MTT reagent at a concentration of 5 mg/mL per well. After incubation for 2-4 h, the supernatant was discarded and 150 μL of DMSO was added to each well. […] Determine the absorbance (A) value (λ=570 nm, A value is proportional to the number of living cells), whichever is the average. […] The experiment was repeated at least 3 times. Experimental data were expressed as mean, data statistics using t test, P<0.05 for the difference was statistically significant. The inhibitory effects of the following compounds on cell proliferation were expressed as IC50 or inhibition rates.
# MDA-MB-435 = assay: Cell proliferation inhibition assay (MTT); assay type: cell-based, human; conditions: Homo sapiens; MDA-MB-435; MTT, 72 hours; read-out: Proliferative inhibitory activity MDA-MB-435 (IC50 class)
# Method: as §2, §3
# HT29 = assay: Cell proliferation inhibition assay (MTT); assay type: cell-based; conditions: Homo sapiens, HT-29; HT29; MTT, 72 hours; read-out: Proliferation inhibitory activity IC50
# Method: as §1
# [1] = tested on: breast cancer cell line MDA-MB-231; assay type: in vivo; conditions: MDA-MB-231 subcutaneous tumor, nude mice
# Method: When the tumors grew to volumes of 200 mm^3, all the mice were randomized into groups (6 mice for each group) and dosed with indicated compounds.
# Observation indexes: mouse body weight and the tumor size were measured once every three days, the tumor volume is calculated (length×width^2×0.5).
# c-Src(1-530) = c-Src(1-530) (Homo sapiens (Human), UniProt P12931); assay: Kinase inhibition assay (KinaseProfiler, 33P-ATP); conditions: read-out: The percentage of the remaining active protein
# c-Src(1-530), sequence (P12931 whole entry, looked up): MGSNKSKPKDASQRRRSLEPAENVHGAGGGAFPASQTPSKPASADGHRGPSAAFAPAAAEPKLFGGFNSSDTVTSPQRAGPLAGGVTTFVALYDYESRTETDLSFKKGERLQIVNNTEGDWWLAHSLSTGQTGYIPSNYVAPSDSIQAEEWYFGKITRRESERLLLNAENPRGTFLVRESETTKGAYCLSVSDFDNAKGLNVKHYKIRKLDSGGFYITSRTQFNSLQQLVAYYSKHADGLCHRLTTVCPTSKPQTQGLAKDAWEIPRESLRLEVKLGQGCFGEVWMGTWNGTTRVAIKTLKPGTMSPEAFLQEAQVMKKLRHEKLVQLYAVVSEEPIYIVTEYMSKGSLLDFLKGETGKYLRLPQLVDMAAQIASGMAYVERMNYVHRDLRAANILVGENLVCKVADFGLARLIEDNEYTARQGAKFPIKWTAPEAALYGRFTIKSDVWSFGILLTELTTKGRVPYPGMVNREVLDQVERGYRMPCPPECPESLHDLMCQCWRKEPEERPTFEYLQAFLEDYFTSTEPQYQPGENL
# B-Raf = B-Raf (Homo sapiens (Human), UniProt P15056); assay: Kinase inhibition assay (KinaseProfiler, 33P-ATP); conditions: read-out: The percentage of the remaining active protein
# Bmx = Bmx (Homo sapiens (Human), UniProt P51813); assay: Kinase inhibition assay (KinaseProfiler, 33P-ATP)
# Bmx, sequence (P51813 whole entry): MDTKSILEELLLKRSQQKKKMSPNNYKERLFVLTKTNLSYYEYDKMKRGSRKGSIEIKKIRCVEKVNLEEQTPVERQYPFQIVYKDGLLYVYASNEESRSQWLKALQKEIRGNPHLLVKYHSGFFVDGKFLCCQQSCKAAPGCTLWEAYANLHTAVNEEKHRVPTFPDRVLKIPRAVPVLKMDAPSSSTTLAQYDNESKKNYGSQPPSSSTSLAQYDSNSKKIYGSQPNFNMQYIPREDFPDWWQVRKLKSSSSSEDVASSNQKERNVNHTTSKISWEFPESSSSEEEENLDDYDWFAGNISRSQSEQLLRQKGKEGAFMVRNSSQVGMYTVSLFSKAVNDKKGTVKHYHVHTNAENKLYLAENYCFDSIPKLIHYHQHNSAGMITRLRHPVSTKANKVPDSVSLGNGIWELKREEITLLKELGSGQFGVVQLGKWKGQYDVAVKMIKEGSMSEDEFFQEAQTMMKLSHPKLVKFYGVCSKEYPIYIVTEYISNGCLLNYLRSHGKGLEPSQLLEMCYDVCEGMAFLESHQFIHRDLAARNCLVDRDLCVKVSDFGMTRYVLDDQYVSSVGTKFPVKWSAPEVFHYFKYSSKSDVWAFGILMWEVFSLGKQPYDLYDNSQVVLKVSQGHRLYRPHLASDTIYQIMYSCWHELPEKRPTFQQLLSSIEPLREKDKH
# Yes, sequence (P07947 whole entry): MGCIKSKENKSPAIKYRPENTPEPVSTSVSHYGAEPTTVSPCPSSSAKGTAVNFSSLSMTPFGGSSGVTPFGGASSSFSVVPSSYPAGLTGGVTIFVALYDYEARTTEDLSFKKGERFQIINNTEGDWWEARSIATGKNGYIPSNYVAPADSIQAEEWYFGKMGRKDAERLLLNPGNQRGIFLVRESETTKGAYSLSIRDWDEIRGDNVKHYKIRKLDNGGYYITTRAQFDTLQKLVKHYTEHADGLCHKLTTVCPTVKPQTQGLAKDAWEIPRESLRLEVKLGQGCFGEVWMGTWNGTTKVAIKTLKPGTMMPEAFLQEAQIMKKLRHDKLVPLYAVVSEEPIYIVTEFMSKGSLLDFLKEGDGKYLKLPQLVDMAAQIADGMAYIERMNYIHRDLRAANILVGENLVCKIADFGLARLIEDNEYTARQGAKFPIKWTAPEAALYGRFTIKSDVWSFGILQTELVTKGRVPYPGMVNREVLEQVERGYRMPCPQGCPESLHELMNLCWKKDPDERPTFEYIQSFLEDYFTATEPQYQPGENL
compound,measurement,setting,value
Cc1ccc(NC(=O)c2ccc(C)c(C(F)(F)F)c2)cc1C#Cc1nn([C@H]2CC[C@H](O)CC2)c2ncnc(N)c12 [Compound 93],remaining activity at 10 µM,"Yes; Yes(h), 10 μM, read-out: The percentage of the remaining active protein",0%
same,pIC50,"Yes; Yes, ATP at Km",9.00
same,remaining activity at 10 µM,"Fyn; Fyn(h), 10 μM, read-out: The percentage of the remaining active protein",0%
same,pIC50,"Fyn; Fyn, ATP at Km",8.22
same,remaining activity at 10 µM,KDR,2%
same,remaining activity at 10 µM,FGFR1,1%
same,remaining activity at 10 µM,EphB4,1%
same,remaining activity at 10 µM,"ErbB2; ErbB2(h), 10 μM, read-out: The percentage of the remaining active protein",4%
same,pIC50,"ErbB2; ErbB2, ATP at Km",6.78
same,remaining activity at 10 µM,"DDR1; DDR1(h), 10 μM, read-out: The percentage of the remaining active protein",-2%
same,pIC50,"DDR1; DDR1, ATP at Km",7.82
same,remaining activity at 10 µM,TrkA,72%
same,remaining activity at 10 µM,IKKα,7%
same,remaining activity at 10 µM,"Lyn; Lyn(h), 10 μM, read-out: The percentage of the remaining active protein",0%
same,pIC50,"Lyn; Lyn, ATP at Km",8.40
same,remaining activity at 10 µM,ALK(h),92%
same,remaining activity at 10 µM,CDK7,103%
same,remaining activity at 10 µM,EphA8(h),2%
same,remaining activity at 10 µM,Fer(h),67%
same,remaining activity at 10 µM,GSK3β(h),26%
same,remaining activity at 10 µM,PKA(h),60%
same,remaining activity at 10 µM,PKBα(h),101%
same,remaining activity at 10 µM,PKBβ(h),127%
same,remaining activity at 10 µM,PKCα(h),110%
same,remaining activity at 10 µM,TBK1(h),104%
same,remaining activity at 10 µM,Tec(h) activated,24%
same,remaining activity at 10 µM,PI3 Kinase a(h),79%
same,pIC50,Miapaca-2,> 6.22
same,pIC50,MDA-MB-231; read-out: Proliferation inhibitory activity IC50,7.52
same,pIC50,MDA-MB-231; read-out: Proliferative inhibitory activity MDA-MB-231 (IC50 class),> 7.00
same,pIC50,MDA-MB-435,> 7.00
same,pIC50,HT29,6.64
same,tumor growth inhibition,"[1]; 20 mg/kg per day, oral",significantly inhibit tumor growth
same,inhibitory effect compared to positive control,"[1]; vs paclitaxel 10 mg/kg per week tail vein, dasatinib 40 mg/kg daily oral",superior inhibitory effect compared to the positive control (paclitaxel)
same,remaining activity at 10 µM,c-Src(1-530),0%
same,remaining activity at 10 µM,B-Raf,7%
same,pIC50,"Bmx; Bmx, ATP at Km",7.68
same,remaining activity at 10 µM,Bmx; read-out: The percentage of the remaining active protein,-1%
